Read-outs that look alike come from different tables or passages of the source.
What was measured:
[1] = target: T1, histone deacetylase, subtype 1 (HDAC1) (Homo sapiens, UniProt Q13547); assay: HDAC1-Flag assay (in vitro fluorescent deacetylation assay); format: biochemical; conditions: epitope-tagged human HDAC1 complex, substrate at Km, mean ± spread (N), read-out: HDAC Inhibition (IC50) nm
T1 construct: Flag; made in house
Protocol: Novel compounds were tested for their ability to inhibit histone deacetylase, subtype 1 (HDAC1) using an in vitro deacetylation assay. The enzyme source for this assay was an epitope-tagged human HDAC1 complex immuno-purified from stably expressing mammalian cells. The substrate consisted of a commercial product containing an acetylated lysine side chain (BIOMOL Research Laboratories, Inc., Plymouth Meeting, Pa.). Upon deacetylation of the substrate by incubation with the purified HDAC1 complex, a fluorophore is produced that is directly proportional to the level of deacetylation.

[2] = tested on: murine erythroleukemia cell line SC9; assay: MTS assay (Cell Titer 96 Aqueous One Solution Cell Proliferation Assay); format: cell-based; conditions: Mus musculus; SC9 cells, 48 hours incubation with increasing concentrations, inhibition of proliferation; mean ± spread (N)
Protocol: The novel compounds of the present invention were tested for their ability to inhibit proliferation of the murine erythroleukemia cell line SC9.
The MTS assay, also referred to as the Cell Titer 96 Aqueous One Solution Cell Proliferation Assay, is a colorimetric method for determining the number of viable cells in proliferation, cytotoxicity or chemosensitivity assays. The MTS reagent contains a novel tetrazolium compound [3-(4,5-dimethylthiazol-2-yl)-5-(3-carboxymethoxyphenyl)-2-(4-sulfophenyl)-2H-tetrazolium, inner salt] and electron coupling reagent (phenazine ethosulfate; PES). Murine erythroleukemia cells (SC-9) were incubated with vehicle or increasing concentrations of compound for 48 hours. Cell proliferation was quantitated by adding a small amount of the MTS reagent directly to culture wells, incubating for 1-4 hours and then recording the absorbance at 490 nm with a 96-well plate reader. The quantity of formazan product, as measured by […] absorbance, is directly proportional to the number of living cells in culture.

[3] = Table 1, compounds of formula II
[4] = Table 2, compounds of formula III
[5] = Table 3, compounds of formula IV

T1 sequence (Q13547 whole entry): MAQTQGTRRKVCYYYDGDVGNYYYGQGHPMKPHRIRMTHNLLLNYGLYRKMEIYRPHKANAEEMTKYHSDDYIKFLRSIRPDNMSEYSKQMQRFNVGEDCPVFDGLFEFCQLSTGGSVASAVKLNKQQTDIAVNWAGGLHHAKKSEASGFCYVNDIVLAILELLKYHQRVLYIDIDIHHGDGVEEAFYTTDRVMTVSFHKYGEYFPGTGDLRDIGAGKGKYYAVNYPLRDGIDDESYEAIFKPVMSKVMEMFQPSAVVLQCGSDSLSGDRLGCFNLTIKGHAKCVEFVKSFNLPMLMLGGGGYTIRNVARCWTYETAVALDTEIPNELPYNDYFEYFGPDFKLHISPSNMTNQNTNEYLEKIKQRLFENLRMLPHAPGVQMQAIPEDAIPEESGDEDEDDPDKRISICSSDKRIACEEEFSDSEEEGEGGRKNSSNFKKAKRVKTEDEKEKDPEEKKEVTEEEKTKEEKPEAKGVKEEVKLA

## O=C(CCCCCC(=O)N(CC(=O)Nc1nc2ccc(F)cc2s1)CC(=O)Nc1nc2ccc(F)cc2s1)NO [Compound 39, Heptanedioic acid bis-[(6-fluoro-benzothiazol-2-ylcarbamoyl)-methyl]-amide hydroxyamide]
[1]; [3]
  IC50: 31.5 ± 12 nM
[2]
  IC50: 346 nM

## O=C(CCCCCC(=O)N(CC(=O)Nc1ccccc1)CC(=O)NC1CCCCC1)NO [Compound 11, Heptanedioic acid cyclohexylcarbamoylmethyl-phenylcarbamoylmethyl-amide hydroxyamide]
[1]; [3]
  IC50: 34.5 ± 12.7 nM
[2]
  IC50: 705 nM

## O=C(CCCCCC(=O)N(CC(=O)Nc1ccc(C(F)(F)F)cc1)CC(=O)Nc1ccc(C(F)(F)F)cc1)NO [Compound 25, Heptanedioic acid bis-[(4-trifluoromethyl-phenylcarbamoyl)-methyl]-amide hydroxyamide]
[1]; [3]
  IC50: 89.5 ± 12 nM
[2]
  IC50: 340 nM

## O=C(CCCCCC(=O)N(CC(=O)Nc1ccccc1)CC(=O)Nc1cccc2cccnc12)NO [Compound 7, Heptanedioic acid hydroxyamide phenylcarbamoylmethyl-(quinolin-8-ylcarbamoylmethyl)-amide]
[1]; [3]
  IC50: 25 ± 21.2 nM
[2]
  IC50: 46 ± 10.9 nM

## O=C(CCCCCC(=O)N(CC(=O)Nc1ccc(F)cc1)CC(=O)Nc1ccc(F)cc1)NO [Compound 4, Heptanedioic acid bis-[(4-fluoro-phenylcarbamoyl)-methyl]-amide hydroxyamide]
[1]; [3]
  IC50: 16 nM
[2]
  IC50: 128 nM

## O=C(CCCCCC(=O)N(CC(=O)Nc1ccccc1)CC(=O)Nc1ccccc1)NO [Compound 6, Heptanedioic acid bis-phenylcarbamoylmethyl-amide hydroxyamide]
[1]; [3]
  IC50: 20.5 ± 0.7 nM
[2]
  IC50: 304 ± 83.4 nM

## O=C(CCCCCC(=O)N(CC(=O)Nc1nc2ccccc2s1)CC(=O)Nc1nc2ccccc2s1)NO [Compound 3, Heptanedioic acid bis-(benzothiazol-2-ylcarbamoylmethyl)-amide hydroxyamide]
[1]; [3]
  IC50: 9.5 ± 4.9 nM
[2]
  IC50: 50 ± 27.7 nM

## Cc1cccc2sc(NC(=O)CN(CC(=O)Nc3nc4c(C)cccc4s3)C(=O)CCCCCC(=O)NO)nc12 [Compound 36, Heptanedioic acid bis-[(4-methyl-benzothiazol-2-ylcarbamoyl)-methyl]-amide hydroxyamide]
[1]; [3]
  IC50: 14.5 ± 4.9 nM
[2]
  IC50: 275 ± 19 nM

## O=C(CCCCCC(=O)N(CC(=O)Nc1cccc2cccnc12)CC(=O)Nc1cccc2cccnc12)NO [Compound 9, Heptanedioic acid bis-(quinolin-8-ylcarbamoylmethyl)-amide hydroxyamide]
[1]; [3]
  IC50: 26.5 ± 6.3 nM
[2]
  IC50: 52 ± 24.9 nM

## O=C(CCCCCC(=O)N(CC(=O)NC1CCc2ccccc21)CC(=O)NC1CCc2ccccc21)NO (stereo not shown) [Compound 37, Heptanedioic acid bis-(indan-1-ylcarbamoylmethyl)-amide hydroxyamide]
[1]; [3]
  IC50: 71 ± 1.4 nM
[2]
  IC50: 388 nM

## O=C(CCCCCCN(CC(=O)Nc1ccccc1)CC(=O)Nc1ccccc1)NO [Compound 41, 7-(Bis-phenylcarbamoylmethyl-amino)-heptanoic acid hydroxyamide]
[1]; [4]
  IC50: 18.5 ± 3.5 nM
[2]
  IC50: 332 nM

## O=C(CCCCN(CC(=O)NCc1ccccc1)CC(=O)NCc1ccccc1)NO [Compound 55, 5-[Bis-(benzylcarbamoyl-methyl)-amino]-pentanoic acid hydroxyamide]
[1]; [4]
  IC50: 907 ± 60.8 nM

## O=C(CCCCC(=O)N1CCN(c2cccc(Cl)c2)CC1)NO [Compound 75, 6-[4-(3-Chloro-phenyl)-piperazin-1-yl]-6-oxo-hexanoic acid hydroxyamide]
[1]; [5]
  IC50: 621 ± 94 nM

## O=C(CCC(=O)N1CCN(c2ccccc2Cl)CC1)NO [Compound 68]
[1]; [5]
  IC50: 73300 nM

## O=C(CCCCCC(=O)N(CC(=O)NCCc1c[nH]c2ccccc12)CC(=O)NCCc1c[nH]c2ccccc12)NO [Compound 33, Heptanedioic acid bis-{[2-(1H-indol-3-yl)-ethylcarbamoyl]-methyl}-amide hydroxyamide]
[1]; [3]
  IC50: 39.5 ± 37.4 nM

## 6-{Bis-[2-(3,4-dihydro-1H-isoquinolin-2-yl)-2-oxo-ethyl]-amino}-hexanoic acid hydroxyamide [Compound 46]
[1]; [4]
  IC50: 153 ± 29.6 nM

## O=C(CCCC(=O)N1CCN(c2cccc(Cl)c2)CC1)NO [Compound 72, 5-[4-(3-Chloro-phenyl)-piperazin-1-yl]-5-oxo-pentanoic acid hydroxyamide]
[1]; [5]
  IC50: 474 ± 36 nM

## Hexanedioic acid bis-(quinolin-8-ylcarbamoylmethyl)-amide hydroxyamide [Compound 15]
[1]; [3]
  IC50: 82 ± 9.8 nM

## O=C(CCCCCC(=O)N(CC(=O)NCc1ccccc1)CC(=O)Nc1ccccc1)NO [Compound 10, Heptanedioic acid (benzylcarbamoyl-methyl)-phenylcarbamoylmethyl-amide hydroxyamide]
[1]; [3]
  IC50: 27.5 ± 10.6 nM

## O=C(CCCCCC(=O)N(CC(=O)Nc1cccc(OCc2ccccc2)c1)CC(=O)Nc1cccc(OCc2ccccc2)c1)NO [Compound 18, Heptanedioic acid bis-[(3-benzyloxy-phenylcarbamoyl)-methyl]-amide hydroxyamide]
[1]; [3]
  IC50: 159 ± 159 nM

## O=C(CCCCCN(CC(=O)N1CCN(c2ccccc2)CC1)CC(=O)N1CCN(c2ccccc2)CC1)NO [Compound 45, 6-{Bis-[2-oxo-2-(4-phenyl-piperazin-1-yl)-ethyl]-amino}-hexanoic acid hydroxyamide]
[1]; [4]
  IC50: 140 ± 16.2 nM

## O=C(CCCCN(CC(=O)NCCc1ccccc1)CC(=O)NCCc1ccccc1)NO [Compound 54, 5-[Bis-(phenethylcarbamoyl-methyl)-amino]-pentanoic acid hydroxyamide]
[1]; [4]
  IC50: 886 ± 20.5 nM

## O=C(CCCCCCC(=O)N(CC(=O)Nc1cccc(OCc2ccccc2)c1)CC(=O)Nc1cccc(OCc2ccccc2)c1)NO [Compound 23, Octanedioic acid bis-[(3-benzyloxy-phenylcarbamoyl)-methyl]-amide hydroxyamide]
[1]; [3]
  IC50: 861 ± 403 nM

## O=C(CCCCCCC(=O)N(CC(=O)Nc1ccc2ncccc2c1)CC(=O)Nc1ccc2ncccc2c1)NO [Compound 17, Octanedioic acid bis-(quinolin-6-ylcarbamoylmethyl)-amide hydroxyamide]
[1]; [3]
  IC50: 102 ± 33.2 nM

## O=C(CCCCCC(=O)N(CC(=O)Nc1ccc2c(c1)Cc1ccccc1-2)CC(=O)Nc1ccc2c(c1)Cc1ccccc1-2)NO [Compound 31, Heptanedioic acid bis-[(9H-fluoren-2-ylcarbamoyl)-methyl]-amide hydroxyamide]
[1]; [3]
  IC50: 59 ± 18.3 nM

## O=C(CCCCCC(=O)N(CC(=O)NCCc1ccccc1)CC(=O)NCCc1ccccc1)NO [Compound 12, Heptanedioic acid bis-(phenethylcarbamoyl-methyl)-amide hydroxyamide]
[1]; [3]
  IC50: 58 ± 9.8 nM

## O=C(CCCCCCC(=O)N(CC(=O)NCc1ccccc1)CC(=O)NCc1ccccc1)NO [Compound 20, Octanedioic acid bis-(benzylcarbamoyl-methyl)-amide hydroxyamide]
[1]; [3]
  IC50: 247 ± 99.9 nM

## O=C(CCCCCC(=O)N(CC(=O)Nc1ccc2c(c1)OCCO2)CC(=O)Nc1ccc2c(c1)OCCO2)NO [Compound 5, Heptanedioic acid bis-[(2,3-dihydro-benzo[1,4]dioxin-6-ylcarbamoyl)-methyl]-amide hydroxyamide]
[1]; [3]
  IC50: 19 nM

## O=C(CCCCCN(CC(=O)NCc1ccccc1)CC(=O)NCc1ccccc1)NO [Compound 48, 6-[Bis-(benzylcarbamoyl-methyl)-amino]-hexanoic acid hydroxyamide]
[1]; [4]
  IC50: 187 ± 10.6 nM
